Experiments:
Conditions in all cases: 72 h
[1] = system: SHI-1; test: cell viability (% survival relative to DMSO control, bortezomib = 0%); higher = less cytotoxic
Summary of the method: (§1)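 Reported values are percent survival from duplicate wells, averaged. Fifteen myeloid leukaemia cell lines were treated in 384-well plates with compounds at 1, 10, 100, 1000 or 10000 nM for 72 h at 37 °C in 5% CO2. Signals from CellTiter-Glo luminescence were scaled with vehicle as 100% and a 10 µM positive control as 0%.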

[2] = system: MV4-11; test: as above
Summary of the method: as §1

[3] = system: HL-60; test: as above
Summary of the method: as §1

[4] = system: Mono-Mac-6; test: as above
Summary of the method: as §1

[5] = system: LAMA-84; test: as above
Summary of the method: as §1

[6] = system: KU-812; test: as above
Summary of the method: as §1

[7] = system: ML-2; test: as above
Summary of the method: as §1

[8] = system: K-562; test: as above
Summary of the method: as §1

[9] = system: THP-1; test: as above
Summary of the method: as §1

[10] = system: HEL; test: as above
Summary of the method: as §1

[11] = system: KCL-22; test: as above
Summary of the method: as §1

[12] = system: BV-173; test: as above
Summary of the method: as §1

[13] = system: MOLM-13; test: as above
Summary of the method: as §1

[14] = system: KG-1; test: as above
Summary of the method: as §1

[15] = system: NOMO-1; test: as above
Summary of the method: as §1

[16] = system: SHI-1
Summary of the method: (§2)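 For the IC50, dose–response curves were fitted with a log-logistic model. The data came from fifteen myeloid leukaemia cell lines grown in RPMI 1640 at densities in the linear growth range and incubated in 384-well plates for 72 h at 37 °C under 5% CO2. Doses were five tenfold steps from 1 to 10,000 nM in duplicate, and luminescent ATP viability was normalised to vehicle and to a positive control at 10 µM before four-parameter fitting.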

[17] = system: MV4-11
Summary of the method: as §2

[18] = system: HL-60
Summary of the method: as §2

[19] = system: Mono-Mac-6
Summary of the method: as §2

[20] = system: LAMA-84
Summary of the method: as §2

[21] = system: KU-812
Summary of the method: as §2

[22] = system: ML-2
Summary of the method: as §2

[23] = system: K-562
Summary of the method: as §2

[24] = system: THP-1
Summary of the method: as §2

[25] = system: HEL
Summary of the method: as §2

[26] = system: KCL-22
Summary of the method: as §2

[27] = system: BV-173
Summary of the method: as §2

[28] = system: MOLM-13
Summary of the method: as §2

[29] = system: KG-1
Summary of the method: as §2

[30] = system: NOMO-1
Summary of the method: as §2

O=c1oc2c(cc1O)oc(=O)c1cc(O)c(O)c(O)c12 [Galloflavin]
cell viability [%]
Conditions | 1 nM | 10 nM | 100 nM | 1000 nM | 10000 nM
[1] | 108 | 105 | 106 | 112 | 104
[2] | 100 | 102 | 94.5 | 106 | 102
[3] | 108 | 101 | 114 | 180 | 186
[4] | 92.9 | 99.7 | 113 | 113 | 100
[5] | 93.7 | 95 | 106 | 98.2 | 99.4
[6] | 94.8 | 96 | 90.7 | 96.6 | 105
[7] | 101 | 95 | 113 | 111 | 115
[8] | 107 | 105 | 100 | 116 | 112
[9] | 98 | 99.3 | 101 | 99.4 | 108
[10] | 99.7 | 98.6 | 122 | 106 | 107
[11] | 103 | 95.3 | 102 | 104 | 112
[12] | 91 | 97.5 | 99.4 | 108 | 118
[13] | 99.3 | 120 | 92 | 115 | 119
[14] | 92.7 | 97.2 | 114 | 115 | 100
[15] | 91.8 | 97.7 | 99.1 | 102 | 106

Conditions | IC50 (cell viability) [µM]
[16] | > 10
[17] | > 10
[18] | > 10
[19] | > 10
[20] | > 10
[21] | > 10
[22] | > 10
[23] | > 10
[24] | > 10
[25] | > 10
[26] | > 10
[27] | > 10
[28] | > 10
[29] | > 10
[30] | > 10

O=C(/C=C/c1cccnc1)NCCCCC1CCN(C(=O)c2ccccc2)CC1 [Daporinad]
cell viability [%]
Conditions | 1 nM | 10 nM | 100 nM | 1000 nM | 10000 nM
[1] | 86.7 | 107 | 83 | 68.9 | 75.5
[2] | 25.5 | 0.401 | 0.0312 | -0.345 | -0.425
[3] | 63.1 | 6.64 | -0.363 | -0.298 | -0.289
[4] | 99.2 | 75.4 | 16.7 | 16.4 | 0.909
[5] | 83.1 | 6.18 | 2.02 | 1.79 | 2.17
[6] | 71.9 | 14.8 | 5.16 | 5.8 | 4.77
[7] | 66 | 1.63 | 0.115 | 0.00307 | -0.274
[8] | 86.5 | 20.4 | 1.83 | 0.861 | 1.37
[9] | 85.6 | 120 | 102 | 104 | 101
[10] | 85.7 | 2.97 | 1.75 | 1.48 | 1.85
[11] | 83.9 | 10.3 | 1.38 | 1.35 | 1.59
[12] | 15.7 | 1.15 | 0.0754 | 0.00943 | 0.321
[13] | 69.1 | 15.7 | 0.0519 | 0.204 | -0.318
[14] | 88 | 25.3 | 10.8 | 8.29 | 7.46
[15] | 34.5 | 1.36 | 0.217 | 0.164 | 0.267

Conditions | IC50 (cell viability) [µM]
[16] | > 10
[17] | < 0.001
[18] | 0.00147
[19] | 0.0206
[20] | 0.00218
[21] | 0.00334
[22] | 0.00139
[23] | 0.00378
[24] | > 10
[25] | 0.00233
[26] | 0.00331
[27] | < 0.001
[28] | 0.00369
[29] | 0.00363
[30] | < 0.001

CN(C)C(=N)NC(=N)N [Metformin]
cell viability [%]
Conditions | 1 nM | 10 nM | 100 nM | 1000 nM | 10000 nM
[1] | 103 | 98.3 | 104 | 106 | 93.9
[2] | 91.2 | 79.7 | 81.7 | 107 | 84.7
[3] | 98.2 | 93.8 | 109 | 102 | 84.3
[4] | 113 | 89.7 | 95.5 | 97.9 | 91.8
[5] | 95.6 | 87.9 | 97.9 | 97.7 | 92.9
[6] | 102 | 95.5 | 96.2 | 110 | 88.5
[7] | 102 | 101 | 99.2 | 101 | 88.5
[8] | 91.9 | 102 | 97.5 | 103 | 91.1
[9] | 99.4 | 95.4 | 93 | 101 | 94.4
[10] | 110 | 94.3 | 107 | 102 | 97.3
[11] | 98.2 | 98.9 | 98.4 | 103 | 88.1
[12] | 107 | 90.3 | 92 | 100 | 89.2
[13] | 105 | 91.5 | 117 | 102 | 83.5
[14] | 97.4 | 97.3 | 101 | 100 | 96.3
[15] | 109 | 93.6 | 95.4 | 97.1 | 92.2

Conditions | IC50 (cell viability) [µM]
[16] | > 10
[17] | > 10
[18] | > 10
[19] | > 10
[20] | > 10
[21] | > 10
[22] | > 10
[23] | > 10
[24] | > 10
[25] | > 10
[26] | > 10
[27] | > 10
[28] | > 10
[29] | > 10
[30] | > 10

Source: the supplement of paper PMC8671470
